We go through six compounds from patent US10611720B2, “Composition for preventing or treating hair loss including benzene diamine derivative” (UNIST(ULSAN NATIONAL INSTITUTE OF SCIENCE AND TECHNOLOGY), priority 2017, dated 2020).

For series [1], the system named is SOX-9. As to the kind of experiment: SOX-9 expression in hDPC cells under oligomer Aβ (confocal fluorescence). Format: cell-based, human. The settings on record: hDPCs, 2 nM oligomer Aβ + 25 μg/ml compound, 3 days; for SOX-9 expression (average fluorescence intensity): normal group 220±12, oligomer Aβ control 12±4; for SOX-9 expression (confocal imaging, in words): Example 4, compared with cells treated with oligomer Aβ. As for the experimental part:
(§1) As in Example 2, examination was performed by using oligomer Aβ as a cytotoxic material for hDPC.
(§2) At 3 days after treatment of the derivatives, the cells were fixed with 4% paraformaldehyde solution, and washed with PBS, and then fluorescence of ROI (relative fluorescence intensity) was measured at 488 nm by a confocal microscope (CONFOCAL, LSM710, Carl Zeiss, Germany) to examine SOX-9 and Cola17a1 expressions. As in Example 2, examination was performed by using oligomer Aβ as a cytotoxic material for hDPC.
(§3) At 3 days after treatment of the derivatives, the cells were fixed with 4% paraformaldehyde solution, and washed with PBS, and then fluorescence was measured at 488 nm/565 nm by a confocal microscope (CONFOCAL, LSM710, Carl Zeiss, Germany) to examine SOX-9 and Cola17a1 expressions. As in Example 2, examination was performed by using oligomer Aβ as a cytotoxic material for hDPC. […] COL17A1 expression was inhibited in the cells (control group C) treated with the cytotoxic oligomer Aβ, as compared with the normal group.

Series [2] concerns COL17A1. As to the kind of experiment: COL17A1 expression in hDPC cells under oligomer Aβ (confocal fluorescence). It counts as cell-based, human. The following applies: hDPCs, 2 nM oligomer Aβ + 25 μg/ml compound, 3 days; normal group 143±11, oligomer Aβ control 16±6. As for the experimental part:
as §1, §2, §3

The subject of series [3] is human hair follicle dermal papilla cells (hDPCs). As to the kind of experiment: Cell viability (MTT) of hDPCs under oligomer Aβ-induced cytotoxicity. The following applies: hDPCs treated with 2 nM oligomer Aβ and 25 μg/ml compound, 72 hours, as compared with group (N).
Protocol: In order to examine effects of the benzene diamine derivates of the present disclosure on improvement of cell viability of hair follicular cells, human hair follicle dermal papilla cells (hDPCs) were treated with the benzene diamine derivates, and cell viability was examined. […] Therefore, examination was performed by using oligomer Aβ as a toxic material for hDPC.
In detail, 2×10^3 hDPCs were dispensed in a multi 96-well plate containing a DMEM medium supplemented with 10% FBS, and cultured in a CO2 incubator (Thermo Scientific) at 37° C., 5% CO2 for 24 hours. Thereafter, experiments were performed by using a normal group which was treated with only cells, a control group which was a group treated with 10 μl of 2 nM oligomer Aβ (oAβ) previously synthesized, and an experimental group which is prepared by treating the normal group with the same concentration of oligomer Aβ and 25 μg/ml of each benzene diamine derivate sample in water or DMSO. To examine cell viability at 72 hours after treatment of the cell line with the sample, 20 μl of 2% MTT solution was added to the cell culture medium. 3 hours later, to terminate the reaction, the culture medium was removed by aspiration, and 50 μl of DMSO was added. 30 minutes later, the reaction was terminated. Thereafter, OD value was measured at 570 nm by using a microplate reader (BioTek, Synergy HT, USA).
In series [4] the test system is APP/PS/Tau mouse (hair loss-induced mouse model). As to the kind of experiment: Hair growth change in hair loss mouse model, oral administration. The settings on record: APP/PS/Tau mice, oral 100 μg/Kg twice a week for 2 months. It counts as in vivo. On the procedure:
An experimental group was prepared by orally administering the control group with the benzene diamine derivate at a concentration of 100 μg/Kg/0.1 ml using a zonde twice a week, and then changes in appearance were observed.
In detail, APP/PS/Tau was purchased from Jackson lab (BAR HARBOR, USA), and APP/Tau female and APP/PSen1de9 purchased from Taconic (Hudson, USA) were cross-mated for 6 generations, and 4-month-old mouse models were obtained from F1. The mouse models were characterized by appearance of hair loss. The hair loss mouse models were divided into groups of 6 mice, and among the hair loss mouse models, the normal group and the control group were orally administered with a phosphate buffer carrier (PBS) for 2 months, and the experimental group was orally administered with 100 μl of N^1-(pyridin-2-ylmethyl)benzene-1,4-diamine (Compound 1) at a concentration of 100 μg/Kg twice a week for 2 months. Thereafter, changes in their appearance were compared.

Series [5] deals with SOX-2. As to the kind of experiment: SOX-2 expression in skin of hair loss mouse model, oral administration. The settings on record: APP/PS/Tau mice, oral 100 μg/Kg twice a week, 2 months. Format: in vivo. As for the experimental part: (§4) Accordingly, the present inventors examined whether expressions of hair growth stimulating factors, SOX-2 and SOX-9 were increased in hair loss animal models by the benzene diamine derivates of the present disclosure. In order to examine SOX-2 and SOX-9 expressions inside skin tissues, APP/PS/Tau mouse which is a hair loss-induced mouse model was selected as a control group and C57BL6 mouse was selected as a normal group, as in Example 5. An experimental group was prepared by orally administering the control group with the benzene diamine derivate at a concentration of 100 μg/Kg/0.1 ml using a zonde twice a week. 2 months later, incision of the skin was performed under local anesthesia, and the skin tissues were fixed in 4% paraformaldehyde solution for 24 hours, and fixed in a plastic mold with O.C.T. Compound (SAKURA, USA) for cryostat sectioning. […] Thereafter, the plate was put on a slide glass and covered with a cover slide, and stored in a dark acrylic box, and fluorescence imaging was observed under a confocal microscope (LSM710, Carl Zeiss, Germany) by 405/488/565 nm laser. […]

Series [6] has as its system SOX-9. As to the kind of experiment: SOX-9 expression in skin of hair loss mouse model, oral administration. The following applies: APP/PS/Tau mice, oral 100 μg/Kg twice a week, 2 months. Format: in vivo. As for the experimental part: as §4
Series [7] concerns monomer/oligomer Aβ. As to the kind of experiment: Monomer/oligomer Aβ expression in skin of hair loss mouse model, oral administration. Format: in vivo. The following applies: APP/PS/Tau mice, oral 100 μg/Kg twice a week, 2 months.

A word on the cell viability: it is a read-out of living cells in per cent, often relative to untreated cells. Low values mean a greater loss of cells, high ones better survival. Consider `CC(=O)Nc1ccc(NC(C)=O)cc1` [Compound 6, N,N-(1,4-phenylene)diacetate Amide], for which, in series [1], the “SOX-9 expression (average fluorescence intensity)” value was 267±56 AFI. In addition, the “COL17A1 expression (average fluorescence intensity)” value (shortened to “COL17A1 expression”) in series [2] was 226±34 AFI. The compound also displayed a cell viability in series [3] of 86±1%.
With `CC(=O)Nc1ccc(N)cc1` [Compound 5, N-(4-aminophenyl)acetamide], in series [1], the “SOX-9 expression (confocal imaging, in words)” value is “more strongly promoted the expression” and the “SOX-9 expression (average fluorescence intensity)” value is 325±45 AFI. Moreover, in series [2], the “COL17A1 expression” value is on record as 3±1 AFI. This compound also came in with a cell viability in series [3] of 77±1%.
`c1ccc(CNc2ccc(N3CCOCC3)cc2)nc1` [Compound 2, 4-morpholino-N-(pyridin-2-ylmethyl)aniline]: in series [1], the “SOX-9 expression (average fluorescence intensity)” value was determined as 187±23 AFI. Besides, in series [2], the “COL17A1 expression” value is on record as 234±31 AFI. In series [3], this compound registered a cell viability of 87±5%.
Consider `Nc1ccc(NCc2ccccn2)cc1` [Compound 1, N^1-(pyridin-2-ylmethyl)benzene-1,4-diamine], for which, in series [1], the “SOX-9 expression (average fluorescence intensity)” value is recorded as 134±23 AFI. The “COL17A1 expression” value in series [2] is 152±13 AFI. The “hair loss (changes in appearance)” value in series [4] is “remarkable improvement in hair loss”. The “SOX-2 expression in skin” value in series [5] is “remarkably expressed close to the normal group”. For the same compound, in series [6], the “SOX-9 expression in skin” value is given as “remarkably increased”. In series [7], the “monomer/oligomer Aβ expression in skin” value was “decreased”. This compound also came in with a cell viability in series [3] of 82±2%.
Regarding `CC(=O)Nc1ccc(N(C)C)cc1` [Compound 4, N-(4-dimethylamino)phenyleneacetamide], in series [1], the “SOX-9 expression (confocal imaging, in words)” value is “more strongly promoted the expression” and the “SOX-9 expression (average fluorescence intensity)” value is recorded as 446±110 AFI. Moreover, in series [2], the “COL17A1 expression” value is listed as 2±1 AFI. The cell viability in series [3] turned out to be 74±3%.
For `CN(C)c1ccc(N)cc1` [Compound 3, N^1,N^1-dimethyl-1,4-phenylenediamine], the “SOX-9 expression (average fluorescence intensity)” value in series [1] stood at 157±21 AFI. Besides, the “COL17A1 expression” value in series [2] is recorded as 24±6 AFI.
